The record followed here is PubChem BioAssay AID743267 (Broad Institute, 2014).

The test system of the experiment is human bronchial epithelial cells, CFTR corrector, plate reader. The experiment can be described thus: CFTR ΔF508 corrector activity in bronchial cells, dose response, human bronchial epithelial cells, plate reader, cherry-pick, two tests (AID 743267).
Setting [1] is: measured here: test 2 replicate run.
Where [2] appears, read: measured here: test 1 replicate run.

For `CCOC(=O)c1c(C)[nH]c(C(=O)N/N=C\c2ccccc2O)c1C`, under setting [1], the half-maximal activity concentration (AC50) – broadly, the concentration at which the activity in the assay is half-maximal – worked out at 3.36 µM.
Regarding `O=S1(=O)c2ccc(Br)cc2N2CCC[C@H]2CN1Cc1ccccc1`, the AC50 under setting [1] was 1.77 µM.
Still for that read-out and setting: with `CN(C)/C=C1\C=C2C(=O)c3ccccc3N2C1=O` the figure was 5.5 µM; with `COc1cc(/C=N/NC(=O)c2cc(-c3c(C)nn(-c4ccccc4)c3C)n[nH]2)ccc1O`, 7.78 µM; with `COc1ccc(OC)c(C2CC(c3ccccc3)=NN2C(=S)Nc2ccccc2)c1` (stereo not drawn), 8.44 µM.
Take `COc1ccc2c(c1)C(O)C(CO)C(C(=O)O)C2` (stereo not drawn): the AC50 under setting [1] was 9.28 µM.
The same measure, in the same setting: the same measure for `NS(=O)(=O)c1cc(C2(O)NC(=O)c3ccccc32)ccc1Cl` (stereo not drawn): more than 50 µM.
Same read-out and setting: with `COc1ccccc1/C=C/C=N/NC(=O)CCn1cnc2ccccc21` the figure was 8.01 µM.
In turn, `COc1ccc(S(=O)(=O)Nc2ccc3c(c2)C(=O)N([C@@H](C)CO)C[C@@H](C)[C@H](CN(C)Cc2ccc(Oc4ccccc4)cc2)O3)cc1` displayed an AC50 under setting [2] of 0.13 µM. That is a sub-micromolar value.
In turn, `NS(=O)(=O)c1ccc(NC(=O)c2cccc3cc4ccccc4nc23)cc1` gave an AC50 under setting [1] of 4.75 µM. In other words, the single-digit micromolar range.
Same read-out and setting: the same measure for `COc1ccc(C2=NOC(C(=O)NCc3ccccc3)C2)cc1` (stereo not drawn): 2.42 µM; for `Cc1ccc(S(=O)(=O)N[C@H](C(=O)OCC(=O)NC(=O)C2CCCCC2)C(C)C)cc1`: 38.6 µM.
As for `COc1ccc(S(=O)(=O)Nc2ccc3c(c2)C(=O)N([C@H](C)CO)C[C@@H](C)[C@@H](CN(C)Cc2ccc(Cl)c(Cl)c2)O3)cc1`, the AC50 under setting [2] amounted to 4.82 µM. That is a single-digit micromolar value.
Regarding `C/C(=N\NC(=O)c1c(Cl)c(C)nn1C)c1ccc(NC(=O)C2CCC2)cc1`, the half-maximal activity concentration (AC50) under setting [1] stood at 1.1 µM.
As to `COc1ccc(/C=C2/CCCc3ccccc3C2=O)cc1`, under setting [1], the AC50 stood at 1.92 µM.
Take `O=C(N=Nc1c(O)[nH]c2ccc(Br)cc12)c1ccccc1-n1cccc1`: the AC50 under setting [1] was 2.33 µM. This AC50 and that of the molecule before are within 1.5-fold of each other.
On the same count and under the same terms, the same measure for `CC1(C(=O)NCc2cccs2)Cc2c(-c3ccc4c(c3)OCO4)ccnc2O1` (stereo not drawn): 2.69 µM; for `N#CC(C#N)=C1C=C2C=C(N3CCOCC3)CCC2CC1` (stereo not drawn): 28.2 µM.
Same read-out and setting: the same measure for `COc1ccc(-c2nc(-c3cccc(C)c3)no2)cc1OC`: 9.13 µM.
The same measure, in the same setting: with `COc1ccc(S(=O)(=O)NCc2ccccn2)cc1NC(=O)c1ccccc1F` the figure was 1.32 µM; with `Cc1cc(NCc2ccccn2)n2ncc(-c3ccccc3)c2n1`, 15.9 µM.
In turn, `CC(=O)Oc1c(C)cc(Cl)cc1C(=O)Nc1ccc([N+](=O)[O-])cc1Cl` displayed a concentration at half-maximal activity (AC50) under setting [1] of 1.38 µM. This AC50 lies about 12-fold lower than the previous one.
`COc1cc(/C=C(\C#N)c2nc3ccccc3[nH]2)cc(OC)c1O`: the concentration at half-maximal activity (AC50) under setting [1] amounted to 7.88 µM.
As for `CN1c2ccc(-c3ccc(F)cc3)cc2[C@H]2[C@H](CCN2S(=O)(=O)c2ccc(F)cc2)[C@H]1CO`, the concentration at half-maximal activity (AC50) under setting [2] came out at 6.55 µM.
As to `COC(=O)c1cn(NC(=O)c2cc([N+](=O)[O-])ccc2F)c(=O)c2ccccc12`, under setting [1], the AC50 was 1.21 µM.
Still for that read-out and setting: the same measure for `CCOc1ccc(-c2cc(C(=O)N/N=C/c3ccc(O)cc3)c3ccccc3n2)cc1`: 16 µM.
The same measure, in the same setting: with `COc1cc(/C=C(\C#N)C(=O)c2c[nH]c3ccccc23)cc(OC)c1O` the figure was 8.32 µM.
As for `CCc1c(C)nc2ncnn2c1NCCc1ccc(OC)cc1`, under setting [1], the concentration at half-maximal activity (AC50) was 34.6 µM.
The molecule `O=c1cc(-c2ccccc2)[nH]c2ccc(F)cc12` showed a concentration at half-maximal activity (AC50) under setting [1] of more than 50 µM.
Still for that read-out and setting: the same measure for `COc1cccc(Sc2ccccc2/C=N/NC(N)=O)c1`: 41.6 µM.
Same read-out and setting: the same measure for `CN(CC(=O)NCCc1ccc(S(N)(=O)=O)cc1)CC(=O)Nc1ccc(Cl)c(C(F)(F)F)c1`: 27.9 µM; for `COc1cc(C(=O)Nc2ccc3c(c2)ncn3C)cc(OC)c1OC`: 3.9 µM; for `CC[C@H]1CN2CCC1C[C@H]2[C@H](O)c1ccnc2ccc(OC)cc12` (stereo partly drawn): 12.9 µM.
Still for that read-out and setting: with `CCOc1ccc(Cl)cc1C1=CC(=O)C[C@H](c2ccc(OC)cc2)C1` the figure was 1.92 µM.
For `Cc1cc(Br)cc(/C=N/NC(=O)c2ccc3c(c2)OCO3)c1O`, the AC50 under setting [1] came out at 6.69 µM.
Under setting [1], `Cc1cc(C(=O)CCC(=O)NC(C)c2ccc(S(N)(=O)=O)cc2)c(C)s1` (stereo not drawn) displayed a half-maximal activity concentration (AC50) of more than 50 µM.
As to `COCCNC(=O)NC12CC3(C)CC(C)(CC(C)(C3)C1)C2`, under setting [1], the concentration at half-maximal activity (AC50) was more than 50 µM.
On the same count and under the same terms, with `CC1CCN(C(=O)C2COc3ccccc3O2)CC1` (stereo not drawn) the figure was 35.1 µM.
